Columns and labels:
Plasmopara viticola = assay: Grape Downy Mildew Control (detached grape leaves); type: in vivo; details: in Vitis vinifera, 250 ppm spray, disease reduction relative to untreated check, read-out: % Control GDM (Grape Downy Mildew)
Protocol: Grape Downy Mildew Control
The compounds of the invention were tested for the control of the Grape Downy Mildew Control organism Plasmopara viticola. Detached leaves, between 70 and 85 mm in diameter, of 7-week old Vitis vinifera cultivar Emperor grape seedlings were used as hosts. The leaves were sprayed with a 250 ppm solution of the test compound in acetone. The sprayed leaves were dried, inoculated with a spore suspension of the organism, placed in a humid environmental chamber and incubated at 66° to 68° F. and about 100% relative humidity. After incubation for 2 days, the plants were then held in a greenhouse 7 to 9 days; then the amount of disease control was determined. The percent disease control provided by a given test compound was based on the percent disease reduction relative to untreated check plants.

Phytophthora infestans = assay: whole plant or invertebrate; type: in vivo; details: in Solanum lycopersicum, 168 h, read-out: % Control TLB (Tomato Late Blight)
[1] = system: Alternaria solani conidia; assay: Tomato Early Blight (tomato seedlings); type: in vivo; details: 250 ppm spray, inoculated 1 day later, relative to untreated check
Protocol: Compounds of the invention were tested for the control of the Tomato Early Blight organism, Alternaria solani conidia. Tomato (variety Bonny Best) seedlings of 6 to 7 weeks old were used. The tomato plants were sprayed with a 250 ppm solution of the test compound in an acetone-and-water solution containing a small amount of a nonionic emulsifier. The sprayed plants were inoculated 1 day later with the organism, placed in the environmental chamber and incubated at 66° to 68° F. and 100% relative humidity for 24 hours. Following the incubation, the plants were maintained in a greenhouse for about 12 days. Percent diseases control was based on the percent disease development on untreated check plants.

Erisiphe polygoni = assay: Bean Powdery Mildew (seedling bean plants); type: in vivo; details: 240 h; 250 ppm spray; bean seedlings, inoculated 1 day later; relative to untreated check; read-out: % Control BPM (Bean Powdery Mildew)
Protocol: The compounds of the invention were tested for the control of the Bean Powdery Mildew organism Erisiphe polygoni. Seedling bean plants were sprayed with a 250 ppm solution of the test compound in acetone, water and a nonionic emulsifier. The sprayed plants were then inoculated 1 day later with organism. The plants were maintained for 10 days at temperatures of 68° F. at night with daytime temperatures of 72° to 80° F.; relative humidity was maintained at 40% to 60%. The percent disease control provided by a given test compound was based on the percent disease reduction relative to the untreated check plants.

Uronyces phaseoli tipica = assay: Leaf Rust / Bean Rust (pinto beans); type: in vivo; details: 336 h, 250 ppm spray, about 14 days, relative to untreated check, read-out: % Control BR (Bean Rust)
Protocol: The Leaf Rust test was made using pinto beans. The pathogen was Uronyces phaseoli tipica. The pinto bean plants were sprayed with a 250 ppm solution of the test compound in an acetone-water mixture containing a nonionic emulsifier. The treated plants were inoculated thereafter with the pathogen and then incubated in an environmental chamber for approximately 20 hours at 100% relative humidity and a temperature of 68° to 70° F. The plants were then removed from the chamber, allowed to dry, and then maintained in a greenhouse at a 60% to 80% relative humidity. The rate of infection on the leaves was made after about 14 days. The percent disease control provided by a given test compound was based on the percent disease reduction relative to untreated check plants.

Botrytis cinerea = assay: Mycelial Inhibition, Botrytis cinerea; type: cell-based; details: Standard DIFOLATAN; 500 ppm, 25° C., 24 hours; 0 = more than 1.6 micrograms/cm^2 required for 99% control
Protocol: (§1) The compounds of the present invention were evaluated for in-vitro fungicidal effectiveness by means of a Mycelial Inhibition test. This test is designed to measure the fungitoxic activity of fungicidal chemicals in terms of their degree of inhibition of mycelium growth. Each compound to be tested was dissolved in acetone to 500 ppm concentration. Paper strips were infused with the particular mycelium growth by covering the paper with a potato dextrose broth culture of mycelial suspension. The papers were then placed on potato dextrose agar plates and sprayed by means of a microsprayer with the fungicidal solution. The treated paper strips were incubated at 25° C. and the data is taken after 24 hours. Fungicidal activities are measured by a zone of inhibited mycelial growth from the center of the paper strip. The effectiveness of the compounds tested for fungicidal activity is reported in Table II (a) for those compounds which were effective in inhibiting mycelial growth.
(§2) The activity is reported in terms of [formula]
(§3) When more than 1.6 micrograms/cm^2 for 99% control of the fungus for the test compound is required, the activity is reported as 0.

Pythium ultimum = assay: Mycelial Inhibition, Pythium ultimum; type: cell-based; details: Standard DIFOLATAN; 500 ppm, 25° C., 24 hours; 0 = more than 1.6 micrograms/cm^2 required for 99% control
Protocol: as §1, §2, §3

Rhizoctania solani = assay: Mycelial Inhibition, Rhizoctania solani; type: cell-based; details: Standard DIFOLATAN; 500 ppm, 25° C., 24 hours; 0 = more than 1.6 micrograms/cm^2 required for 99% control
Protocol: as §1, §2, §3

Septoria apii = type: in vivo; details: 250 ppm spray; celery plants; relative to untreated check
Piricularia oryzae = type: in vivo; details: 625 ppm spray; rice seedlings, inoculated 1 day later; relative to untreated check

Row | SMILES | pest or weed control at 250 ppm (Plasmopara viticola) [%] | pest or weed control at 250 ppm (Phytophthora infestans) [%] | % Control TEB (Tomato Early Blight) [1] [%] | pest or weed control at 250 ppm (Erisiphe polygoni) [%] | pest or weed control at 250 ppm (Uronyces phaseoli tipica) [%] | Mycelial inhibition, Botrytis (% Standard) (Botrytis cinerea) | Mycelial inhibition, Pythium (% Standard) (Pythium ultimum) | Mycelial inhibition, Rhizoc. (% Standard) (Rhizoctania solani) | % Control CLB (Celery Late Blight) (Septoria apii) [%] | % Control Rice Blast (Piricularia oryzae) [%]
1 | Cc1cc(=O)on1C(=O)c1ccc([N+](=O)[O-])cc1 [Compound 1, 3-methyl-2-(4'-nitrobenzoyl)-3-isoxazolin-5-one] | 21 | 0 | 0 | 0 | 0 | 0 | 0 | 0 |  | 
2 | Cc1cc(=O)on1C(=O)c1ccc(Cl)cc1Cl [Compound 2, 3-methyl-2-(2',4'-dichlorobenzoyl)-3-isoxazolin-5-one] | 14 | 97 | 92 | 21 | 0 | 34 | 0 | 0 | 99 | 
3 | CCCc1cc(=O)on1C(=O)c1ccc(Cl)cc1Cl [Compound 3, 3-n-propyl-2-(2',4'-dichlorobenzoyl)-3-isoxazolin-5-one] | 0 | 35 |  | 0 | 0 | 0 |  | 0 | 0 | 44
4 | Cc1cc(=O)on1C(=O)c1ccccc1 [Compound 4] | 6 | 50 |  | 0 | 0 | 0 |  | 0 | 0 | 0
5 | CC(C)c1cc(=O)on1C(=O)c1ccc(Cl)cc1Cl [Compound 5] | 3 | 69 |  | 0 | 0 | 0 |  | 23 | 0 | 83
6 | Cc1cc(=O)on1C(=O)c1ccc(Cl)cc1 [Compound 6] | 16 | 50 | 0 | 0 | 0 | 6 | 12 | 33 | 0 | 0
7 | Cc1cc(=O)on1C(=O)c1ccc([N+](=O)[O-])cc1Cl [Compound 7] | 19 | 31 | 0 | 0 | 0 | 0 | 0 | 0 | 44 | 50
8 | Cc1cc(=O)on1C(=O)c1ccc(Cl)cc1[N+](=O)[O-] [Compound 8] | 6 | 56 | 56 | 0 | 0 | 15 | 0 | 0 | 11 | 0

From patent publication US4504486A (priority 1982, dated 1985)
